Laboratory results from patent US20170266192A1, “METHODS FOR IMPROVING DIAPHRAGM FUNCTION” (CYTOKINETICS, INC., priority 2012, published 2017).
One block for each molecule: values may come before it.

How the values were obtained:
[1] = test system: rat skinned diaphragm fibers; assay: Force-pCa skinned muscle fiber analysis; format: cell-based
Description: (§1) Muscle tissue for in vitro skinned fiber studies were prepared using a protocol based on Lynch and Faulkner (Am J Physiol 275:C1548-54 (1998)). Briefly, rat diaphragm or rabbit psoas muscles were rapidly dissected and rinsed with physiological saline. Muscles were then incubated in skinning solution (125 mM K-propionate, 20 mM imidazole, 5 mM EGTA, 2 mM MgCl2, 2 mM ATP, pH 7.0) supplemented with 0.5% Brij 58 (Sigma Chemicals, St. Louis, Mo.) or 0.5% Triton X-100 (Sigma Chemicals, St. Louis, Mo.) for 30 minutes at 4° C. Muscles were then placed in storage solution (125 mM K-propionate, 20 mM imidazole, 5 mM EGTA, 2 mM MgCl2, 2 mM ATP, glycerol 50%, pH 7.0) at −20° C. Muscles were incubated in storage solution at −20° C. for later use.
For skinned fiber analysis, single muscle fibers were dissected from larger segments of tissue in rigor buffer at 4° C. ([…], pH 7.0). They were then suspended between a 400 A force transducer (Aurora Scientific, Ontario, Canada) and a fixed post and secured with 2-4 μl of a 5% solution of methylcellulose in acetone. Fibers were then incubated at 10° C. in a relaxing buffer ([…], 1 mg/ml creatine kinase, 1 mM DTT, 44 ppm antifoam, pH 7.0) and baseline tension adjusted. Tension was generated in each fiber by changing fiber buffer over to relax buffer supplemented with 1 mM EGTA and one or more concentrations of aqueous calcium chloride. Test articles were added to these buffers in a 1% DMSO solution.
Force production was measured in rat skinned diaphragm fibers exposed to increasing concentrations of calcium in the presence and absence of the fast skeletal muscle troponin activator Compound B, (3-(2-(((trans)-3-fluoro-1-(3-fluoropyridin-2-yl)cyclobutyl)methylamino)pyrimidin-5-yl)benzamide), according to the procedure of Example 1.
Force production was measured in rat skinned diaphragm fibers exposed to increasing concentrations of calcium in the presence and absence of the fast skeletal muscle troponin activator Compound C, 1-(ethylpropyl)-6-ethynylimidazo[4,5-b]pyrazin-2-ol, according to the procedure in Example 1.

rat diaphragm muscle [2] = assay: Force-frequency relationship, ex vivo electrical field stimulation
Description: (§2) Diaphragm contractile force was measured by electrical field stimulation in an organ bath system (Radnoti) based on a standard operating protocol adapted from the Treat NMD website (http://www.treat-nmd.eu/downloads/file/sops/dmd/MDX/DMD M.1.2.002.pdf). The diaphragm and the last floating rib from SHAM and LAD rats were excised, rinsed in physiological saline, and placed in a temperature controlled water-jacketed chamber (26-27° C.) containing Krebs-Henseleit Buffer (118 mM NaCl, 10 mM glucose, 4.6 mM KCl, 1.2 mM KH2PO4, 1.2 mM MgSO4*7H2O, 24.8 mM NaHCO3, 2.5 mM CaCl2, 50 mg/L tubocurarine, 50 U/L insulin, pH:7.4) that was continuously aerated with 95% O2/[…]. After 10 minutes of equilibration, vertical strips spanning the floating rib to the central tendon were cut from diaphragms. Braided silk sutures were tied at the central tendon and floating rib and attached to a force transducer between two platinum electrodes. Diaphragm strips were set to a length that produced maximum twitch tension (Lo). The force-frequency profile of the muscle was obtained by stimulating the muscle at frequencies between 10-150 Hz (Grass Stimulator, 800 ms train duration, 0.6 ms pulse width).
Force production was measured in rat diaphragm muscle ex vivo by electrical field stimulation in the presence and absence of Compound B according to the procedure of Example 6. Compound B was suspended in DMSO and added directly to the bath.
Force production was measured in rat diaphragm muscle ex vivo by electrical field stimulation in the presence and absence of fast skeletal muscle troponin activator Compound D, 1-(2-(((trans)-3-fluoro-1-(3-fluoropyridin-2-yl)cyclobutyl)methylamino)pyrimidin-5-yl)-1H-pyrrole-3-carboxamide according to the procedure of Example 6. Compound D was suspended in DMSO and added directly to the bath.

rat diaphragm muscle [3] = assay: Diaphragm repeated contraction fatigue analysis; details: 5 uM and 10 uM, dose-dependent; 20 Hz stimulation, 10 minutes
Description: as §2, with “The force-frequency profile of the muscle was obtained by stimulating the muscle at frequencies between 10-150 Hz (Grass Stimulator, 800 ms train duration, 0.6 ms pulse width).” left out
Following the procedure of Example 7, diaphragms were subjected to repeated electrical stimulations (20 Hz stimulation, 330 ms train duration, 1 train/sec) over a period of 10 minutes. Force production was measured over 600 contractions in rat diaphragm muscle ex vivo by field electrical stimulation in the presence and absence of Compound B (5 uM and 10 uM).

[4] = test system: skinned diaphragm fibers from SHAM and LAD rats; assay: Force-pCa skinned muscle fiber analysis in a rat model of HF; format: cell-based; details: 3 μM
Description: as §1
For skinned fiber analysis, single muscle fibers were dissected from larger segments of tissue in rigor buffer at 4° C. (20 μM MOPS, 5 μM MgCl2, 120 μM potassium acetate, 1 μM EGTA, pH 7.0). They were then suspended between a 400 A force transducer (Aurora Scientific, Ontario, Canada) and a fixed post and secured with 2-4 μl of a 5% solution of methylcellulose in acetone. […]
Force production was measured in skinned diaphragm fibers from SHAM and LAD rats exposed to increasing concentrations of calcium in the presence and absence of Compound D according to the procedure of Example 1.

[5] = test system: permeabilized single fibers from rabbit psoas muscle; assay: Skinned fiber tension at constant calcium, rabbit psoas; format: cell-based
Description: as §1
(§3) For skinned fiber analysis, single muscle fibers were dissected from larger segments of tissue in rigor buffer at 4° C. (20 μM MOPS, 5 μM MgCl2, 120 μM potassium acetate, 1 μM EGTA, pH 7.0). […]
(§4) The functional effects of the fast skeletal muscle troponin activator, Compound A (6-bromo-1-(ethylpropyl)imidazo[4,5-b]pyrazin-2-ol), on skeletal muscle force were assessed under isometric conditions in permeabilized single fibers from rabbit psoas muscle and rat diaphragm muscle according to the procedure of Example 1.

[6] = test system: permeabilized single fibers from rat diaphragm muscle; assay: Skinned fiber tension at constant calcium, rat diaphragm; format: cell-based
Description: as §1, §3, §4

[7] = test system: WT and SOD1 mouse diaphragm muscle; assay: Diaphragm force-frequency relationship in a mouse ALS model; details: frequencies up to 30 Hz; dose-dependent
Description: as §2, with “wild type (WT)” for “SHAM”, “SOD1 mice” for “LAD rats”, “width). Compound C was suspended in DMSO and directly added into the bath.” for “width).”

SOD1 mice = assay: Unrestrained whole body plethysmography (UWBP); format: in vivo, mouse; details: 10 mg/kg
Description: Wild type (WT) and SOD1 mice were dosed with vehicle or 10 mg/kg Compound C and placed in plethysmography chambers for 30 minutes of acclimatization. After acclimatization, respiratory parameters, including tidal volume, respiratory rate, and minute ventilation, were monitored for 10 minutes at room air. Upon completion of baseline room air measurements, animals were exposed to a 5% CO2 gas mixture for 30 minutes. After the 5% CO2 exposure, animals were re-exposed to room air and monitored.

[8] = 30 μM, submaximal frequencies of electrical stimulation
[9] = skinned fibers, constant calcium, 10 nM-40 μM

SMILES: NC(=O)c1cccc(-c2cnc(NC[C@]3(c4ncccc4F)C[C@H](F)C3)nc2)c1 [Compound B, 3-(2-(((trans)-3-fluoro-1-(3-fluoropyridin-2-yl)cyclobutyl)methylamino)pyrimidin-5-yl)benzamide]
pCa at 50% of Maximum Tension, Log [Ca^2+] (M) ([1]; 0.5 uM compound, vehicle −5.43 ± 0.03): −5.78 ± 0.008 M | pCa at 50% of Maximum Tension, Log [Ca^2+] (M) ([1]; 1 uM compound, vehicle −5.43 ± 0.03): −5.90 ± 0.03 M | increase in calcium sensitivity compared to vehicle-only muscle fibers ([1]; 10 μM Compound B): 10 fold | pCa at 50% of Maximum Tension, Log [Ca^2+] (M) ([1]; 10 uM compound, vehicle −5.43 ± 0.03): −6.46 ± 0.03 M | force production compared to vehicle-only diaphragms (rat diaphragm muscle [2]; frequencies up to 30 Hz of electrical stimulation): significantly more force | force production over 600 contractions compared to vehicle-only diaphragms (rat diaphragm muscle [3]): significantly more force

SMILES: NC(=O)c1ccn(-c2cnc(NCC3(c4ncccc4F)CC(F)C3)nc2)c1 (stereo not drawn) [Compound D, 1-(2-(((trans)-3-fluoro-1-(3-fluoropyridin-2-yl)cyclobutyl)methylamino)pyrimidin-5-yl)-1H-pyrrole-3-carboxamide]
force in HF (LAD) diaphragms (rat diaphragm muscle [2]; [8]): significantly increased force | force in SHAM diaphragms (rat diaphragm muscle [2]; [8]): significantly increased force | Ca^2+ sensitivity of HF diaphragm fibers [4]: significantly increased Ca^2+ sensitivity | Ca^2+ sensitivity of SHAM diaphragm fibers [4]: significantly increased Ca^2+ sensitivity

EC50 ([5]; rabbit psoas fibers, constant free calcium 1.78 μM (pCa=5.75), n=3, read-out: EC50, increase in skinned fiber tension): 590 nM | EC50 ([6]; rat diaphragm fibers, constant free calcium 3.16 μM (pCa=5.5), n=4, read-out: EC50, increase in skinned fiber tension): 1200 nM
SMILES: CCC(CC)n1c(O)nc2ncc(Br)nc21 [Compound A, 6-bromo-1-(ethylpropyl)imidazo[4,5-b]pyrazin-2-ol]
tension in rabbit psoas muscle [5, 9]: increased tension | tension in rat diaphragm muscle [6, 9]: increased tension

SMILES: C#Cc1cnc2nc(O)n(C(CC)CC)c2n1 [Compound C, 1-(ethylpropyl)-6-ethynylimidazo[4,5-b]pyrazin-2-ol]
pCa at 50% of Maximum Tension, Log [Ca^2+] (M) ([1]; 0.1 uM compound, vehicle −5.43 ± 0.054): −5.59 ± 0.007 M | pCa at 50% of Maximum Tension, Log [Ca^2+] (M) ([1]; 1 uM compound, vehicle −5.43 ± 0.054): −6.19 ± 0.018 M | increase in calcium sensitivity compared to vehicle-only muscle fibers ([1]; 10 μM Compound C): 10 fold | pCa at 50% of Maximum Tension, Log [Ca^2+] (M) ([1]; 10 uM compound, vehicle −5.43 ± 0.054): −6.74 ± 0.28 M | force production in SOD1 diaphragm muscle compared to vehicle-only [7]: significantly more force | force production in WT diaphragm muscle compared to vehicle-only [7]: significantly more force | tidal volume at recovery compared to vehicle-treated animals (SOD1 mice; after 30 minute exposure to 5% CO2): significantly higher tidal volume | tidal volume at baseline compared to vehicle-treated animals (SOD1 mice; room air): significantly higher tidal volume
